The values that follow come from ChEMBL document CHEMBL4433260, “Oxadiazole scaffolds in anti-tuberculosis drug discovery” (Bioorg Med Chem Lett, 2019).

≈ marks a conversion by molar mass, not a printed value.

Experiment [1] concerns Mycobacterium tuberculosis. Description: Antimycobacterial activity against Mycobacterium tuberculosis H37Rv at 250 ug/ml measured after 4 weeks by Lowensteine-Jensen method relative to control. It counts as functional. As to conditions: 672 h.
Experiment [2] concerns Mycobacterium tuberculosis. Nature of the experiment: Antimycobacterial activity against Mycobacterium tuberculosis H37Rv measured after 28 days by Lowensteine-Jensen method. It counts as functional. As to conditions: 672 h.
In experiment [3] the test system is Mycobacterium tuberculosis. Description: Antimycobacterial activity against Mycobacterium tuberculosis H37Rv incubated for 5 days by alamar blue assay. The class given is functional. As to conditions: 120 h.
Experiment [4] deals with Mycobacterium tuberculosis. Nature of the experiment: Antitubercular activity against dormant stage of Mycobacterium tuberculosis H37Ra. The class given is functional.
Experiment [5] deals with Mycobacterium tuberculosis. Nature of the experiment: Antimycobacterial activity against Mycobacterium tuberculosis H37Rv at 100 ug/ml by alamar blue assay relative to control. It counts as functional.
Experiment [6] deals with Mycobacterium tuberculosis. Description: Antimycobacterial activity against Mycobacterium tuberculosis H37Rv by alamar blue assay. The class given is functional.
Experiment [7] is described as follows: Inhibition of Mycobacterium tuberculosis H37Rv shikimate kinase using shikimic acid as substrate preincubated for 15 mins followed by substrate addition in presence of ATP by LC/MS analysis.
The subject of experiment [8] is Mycobacterium tuberculosis. Description: Antimycobacterial activity against Mycobacterium tuberculosis H37Rv. It counts as functional.
Experiment [9] has as its system Mycobacterium tuberculosis. Description: Antimycobacterial activity against replicating Mycobacterium tuberculosis H37Rv at 8 ug/ml relative to control. It counts as functional.
Experiment [10] has as its system Mycobacterium tuberculosis. Nature of the experiment: Antimycobacterial activity against Mycobacterium tuberculosis Erdman. The class given is functional.
The subject of experiment [11] is Mycobacterium tuberculosis. Nature of the experiment: Antimycobacterial activity against non-replicating Mycobacterium tuberculosis H37Rv at 1.6 ug/ml relative to control. It counts as functional.
The subject of experiment [12] is Mycolicibacterium smegmatis. Nature of the experiment: Antimycobacterial activity against Mycobacterium smegmatis str. MC2 155. The class given is functional.

Take `Cc1nn(-c2ccccc2)c(Oc2cccc(C(F)(F)F)c2)c1-c1nnc(-c2ccc(Br)cc2)o1`: in experiment [1], the inhibition at 250 µg/mL was over 90%.

Turning to `Cc1ccc2nc(Cl)c(CN(c3ccccc3)c3nnc(-c4cccnc4)o3)cc2c1`, the MIC in experiment [2] lay in the range of 60 to 200 µM (≈ 25.7 to 85.6 µg/mL).

Turning to `Cn1c(-c2cccc(Cl)c2F)nc2cc(-c3nc(Cc4cccc(Cl)c4)no3)ccc21`, the MIC in experiment [3] is 1.6 µg/mL (≈ 3.53 µM).

For the molecule `CC1(C)Cc2c(C#CCO)c(NC(=O)C(C)(C)C)cc(-c3nnc(-c4ccc(C(F)(F)F)cc4)o3)c2O1`, it took 5.7 µM to reach the 90% level in experiment [4] (IC90).

`Clc1ccc2nc(Cl)c(CN(c3ccccc3)c3nnc(-c4cccnc4)o3)cc2c1` showed an MIC in experiment [2] of 60 to 200 µM (≈ 26.9 to 89.7 µg/mL).

With `Cn1c(-c2cccc(Cl)c2Cl)nc2cc(-c3nc(-c4ccc(Cl)cc4)no3)ccc21`, the MIC in experiment [3] came to 1.6 µg/mL (≈ 3.51 µM).

`Cc1ccc2c(c1)cc(-c1nnc(-c3ccncc3)o1)c1nnnn12` came in with an inhibition at 100 µg/mL in [5] of over 90%.

`Cc1ccc(-c2nnc(-c3c(C)nn(-c4ccccc4)c3Oc3ccc(F)cc3)o2)cc1` had an inhibition at 250 µg/mL in experiment [1] of over 90%.

As to `Clc1ccc(-c2nnc(/N=C/c3ccco3)o2)cc1`, in experiment [6], 3.12 µg/mL (≈ 11.4 µM) was the least that counted as inhibitory (MIC).

`O=C(/C=C/c1ccccc1)Nc1nnc(C2CCCc3ccccc32)o1` (stereo not given): the IC50 in experiment [7] was 3.79 µM. Besides, the MIC in experiment [8] is under 1 µg/mL.

Molecule `Cc1nn(-c2ccccc2)c(Oc2ccc(F)cc2)c1-c1nnc(-c2ccc(Br)cc2)o1` returned an inhibition at 250 µg/mL in [1] of over 90%.

In [2], `Clc1nc2ccccc2cc1CN(c1ccccc1)c1nnc(-c2ccncc2)o1` gave an MIC of 60 to 200 µM (≈ 24.8 to 82.8 µg/mL).

`CO[C@H]1O[C@H](Cc2nnc(C)o2)[C@@H](OCc2ccccc2)[C@H](OCc2ccccc2)[C@H]1OCc1ccccc1`: the MIC in experiment [8] was 60 µM. That is a double-digit micromolar value.

Regarding `Cn1c(-c2cccc(Cl)c2Cl)nc2cc(-c3nc(-c4ccccc4Cl)no3)ccc21`, in experiment [3], the MIC amounted to 1.6 µg/mL (≈ 3.51 µM).

For the molecule `O=C(Nc1nnc(-c2ccc(F)cc2)o1)c1ccc(Cl)cc1`, the inhibition at 8 µg/mL in experiment [9] was over 90%. Besides, the MIC was 1.6 µg/mL (≈ 5.04 µM) in experiment [10] and 0.4 µg/mL (≈ 1.26 µM) in experiment [12]. The molecule further displayed an inhibition at 1.6 µg/mL in [11] of over 90%.

Molecule `COc1ccc(-c2nnc(-c3cc4cc(C)ccc4n4nnnc34)o2)cc1` returned an inhibition at 100 µg/mL in experiment [5] of over 90%.

In the case of `Clc1ccc2nc(Cl)c(CN(c3ccccc3)c3nnc(-c4ccncc4)o3)cc2c1`, the minimal inhibitory concentration (MIC) in experiment [2] fell in the range of 60 to 200 µM (≈ 26.9 to 89.7 µg/mL).

The molecule `Cn1c(-c2cccc(Cl)c2F)nc2cc(-c3nc(-c4ccc(Cl)cc4)no3)ccc21` returned an MIC in experiment [3] of 1.6 µg/mL (≈ 3.64 µM).

Regarding `O=C(Nc1nnc(-c2ccccc2Cl)o1)c1cccc(Oc2ccccc2)c1`, in experiment [7], the IC50 came out at 3.43 µM. In addition, the MIC in experiment [8] was under 1 µg/mL.

As for `Cc1ccc(-c2nnc(-c3c(C)nn(-c4ccccc4)c3Oc3cccc(F)c3)o2)cc1`, the inhibition at 250 µg/mL in experiment [1] is over 90%.
